The text below walks through data of US9757378B2, “Methods to modulate acute myeloid leukemia stem/progenitor cell expansion and/or differentiation” (UNIVERSITE DE MONTREAL, priority 2013, dated 2017).

The subject of one series is AML 05H163 cells. Description: 5-day culture of AML 05H163 with AhR suppressors plus UM729. The series is classed as cell-based, human. As to conditions: 05H163, 5 days.
Series [1] deals with primary human AML cells. Put plainly: Secondary screen: dose response, five serial dilutions (CD34/CD15 flow cytometry). Type of series: cell-based. More on the design: key to 2ndary screen criteria fulfilled: 0 = no; 1 = yes.
Description: In the primary screen cells were plated in transparent 384-wellplates (Greiner, 781182) at a density of 5,000 cells in 50 μl final volume per well. Compounds were tested at 2 μM (commercial libraries) or 1 μg/ml (Medicinal Chemistry Facility, IRIC). […] For validation experiments AML cells were grown in 384-well plates with 3-8 replicates per condition.
Flow cytometry was performed on an LSR™ II cytometer equipped with an HTS-device (BD Bioscience, Primary and Secondary screens and in vitro validation experiments) or on a BD Canto™ II cytometer (BD Bioscience, Xenotransplantation and CellTrace Violet™ experiments). Cells were stained for 30 minutes at 4° C. protected from light if not otherwise indicated (CellTrace Violet™ staining). The following flow cytometry-antibodies were used: CD45 Pacific Blue (BioLegend 304029), CD33 PE (BD Bioscience 555450), CD34 APC (BD Bioscience 555824), CD3 FITC (BD Bioscience 555332), CD19 PE-Cy7 (BD Bioscience 557835), CD15 PE (BD Bioscience 555401), and anti-mouse CD45.1 APC-efluor 730 (eBioscience 47-0453-82). CD34 intensities in flow cytometry plots were set at high levels on day 0 to allow tracing of non-predictable decreases of intensities during 7 days in culture.
In series [2] the test system is primary human AML specimens. Description: Validation: 7-day serum-free culture of diverse AML specimens (CD34+CD15− cells). Type of series: cell-based. As for the experimental part: The following flow cytometry-antibodies were used: […] Statistical analyses of all in vitro experiments were done using Graphpad Prism v 6.01. […] Normalized CD34^+CD15^- percentages (td7/t0) were analyzed by Wilcoxon matched pairs signed rank test. Bars and error bars represent means and standard deviations (SD), or standard errors of the mean (SEM), as specified. Extreme limiting dilution analysis software (Hu, […]: extreme limiting dilution analysis for comparing depleted and enriched populations in stem cell and other assays. Journal of immunological methods 347, 70-78 (2009); http://bioinf.wehi.edu.au/software/elda/) was used to estimate LSC frequencies with 95% confidence intervals. In cases where all mice were positive or negative, one-sided confidence intervals were calculated. Differences in LSC frequencies between culture conditions were analyzed by Chi-square test.

Series [3] concerns AhR target genes CYP1A1, CYP1B1 and AHRR. Put plainly: AhR target gene expression by q-RT-PCR in AML cells. Type of series: cell-based, human. As to conditions: 24 h incubation, compared to DMSO, GAPDH control. From the text:
RNA was isolated from primary AML samples using Trizol® reagent according to the manufacturer's instructions (Invitrogen/Life Technologies) and reverse transcribed into cDNA using MMLV reverse transcriptase and random primers. 2× Fast Master Mix® containing primers described below and probes from the Universal Probe Library® (Roche Diagnostics) were used for q-RT-PCR reactions which were amplified in 2-3 technical replicates on an ABI 7900HT Fast Real-Time® PCR System (Applied Biosystems/Life Technologies). Analysis was done with SDS 2.2.2 software (Applied Biosystems/Life Technologies) using the comparative delta CT method with GAPDH as reference gene. The following primers and probes were used: GAPDH: 5′-[…]-3′ (forward, SEQ ID NO:7), 5′-[…]-3′ (reverse, SEQ ID NO:8), probe 60, CYP1A1: 5′-[…]-3′ (forward, SEQ ID NO:9), 5′-[…]-3′ (reverse, SEQ ID NO:10), probe 59, CYP1B1: 5′-[…]-3′ (forward, SEQ ID NO:11), 5′-[…]-3′ (reverse, SEQ ID NO:12), probe 20, AHRR: 5′-[…]-3′ (forward, SEQ ID NO:13), 5′-[…]-3′ (reverse, SEQ ID NO:14), probe 72, AHR: 5′-[…]-3′ (forward, SEQ ID NO:15), 5′-[…]-3′ (reverse, SEQ ID NO:16), probe 33.

Series [4] relates to primary human AML cells. Put plainly: Primary screen: differentiation of primary human AML cells in vitro (CD34/CD15, HTS flow cytometry). (Flow cytometry measures light scatter and fluorescence of single cells or particles in a stream.)
The subject of series [5] is leukemia stem cells (LSC) of primary human AML samples. Description: Xenotransplantation of 4-day cultured AML cells into NSG mice (engraftment, LSC frequency). Conditions: 4-day culture, NSG mice, most samples. Type of series: in vivo. From the text:
NOD.Cg-Prkdc^scid II2rg^tm1Wjl/SzJ (NSG) mice were purchased from Jackson Laboratory® (Bar Harbor, Me.) and bred in a pathogen-free animal facility. All AML samples were transplanted via the tail vein into 8-12 week old sublethally irradiated (250 cGy, ^137Cs-gamma source) NSG mice. […] On day 4, equivalents of the three highest to cell doses from each of the 3-4 flasks per condition were transplanted. The technician injecting fresh and cultured cells in NSG mice was not informed about the experimental conditions. […] On average 150,000 gated events were acquired. Mice were considered positive if human cells represented >1% of the bone marrow cell population. Mice were excluded only in case of obvious non-leukemia related death (e.g. first two weeks after irradiation). To discriminate between engraftment of leukemic and normal cells present in unsorted patient samples only recipients with proportions of CD45^+CD33^+ or CD45^+CD34^+ cells higher than proportions of CD19^+CD33^- or CD3^+ were considered to harbor cells of leukemic origin. Statistical analyses of all in vitro experiments were done using Graphpad Prism v 6.01. […] Normalized CD34^+CD15^- percentages (td7/t0) were analyzed by Wilcoxon matched pairs signed rank test. Bars and error bars represent means and standard deviations (SD), or standard errors of the mean (SEM), as specified. Extreme limiting dilution analysis software (Hu, […]: extreme limiting dilution analysis for comparing depleted and enriched populations in stem cell and other assays. Journal of immunological methods 347, 70-78 (2009); http://bioinf.wehi.edu.au/software/elda/) was used to estimate LSC frequencies with 95% confidence intervals. In cases where all mice were positive or negative, one-sided confidence intervals were calculated. Differences in LSC frequencies between culture conditions were analyzed by Chi-square test.

The next series relates to AML cells (04H112). Description: Cell proliferation assay (CellTrace Violet). The series is classed as cell-based, human. Conditions: 4-day culture; SR1 500 nM, UM729 1 μM. The protocol:
CellTrace™ Violet (Invitrogen/Life Technologies C34557) was added at a final concentration of 3 μM to cell suspensions (10^7 cells/ml) containing SR1 (500 nM), UM729 (1 μM), both compounds, or vehicle DMSO (0.1%). CellTrace™ Violet labeled cells were stained with surface antibodies against human CD3, CD19, CD34, and CD33 on day 0, day 2, and day 4 prior to analysis on a BD Canto™ II flow cytometer. Data were analyzed using FlowJo™ version 7.6.5.

For a further series, the system named is AML cells. Description: Morphology analysis (cytospins, Wright stain). Conditions: 4-day culture; SR1 500 nM, UM729 1 μM. The series is classed as cell-based, human. The protocol:
2-4×10^5 fresh and cultured cells were centrifuged onto cytospin slides, stained with Wright stain solution for 10 minutes and washed with PBS and water prior to analysis. Pictures of cytospins were taken with a Canon® EOS 5D camera connected to a Zeiss® Axio Imager microscope (40× objective).

The mark [6] stands for this setting: at optimal concentration, compared to DMSO.

Description for AML 05H163 cells: AML cells were thawed in 37° C. water bath and 1:10 diluted in prewarmed Iscove's modified Dulbecco's medium (IMDM) containing 20% FBS and DNase 100 μg/ml. Cells were cultured in IMDM supplemented with 15% BIT (bovine serum albumin, insulin, transferrin, Stem Cell Technologies #09500), SCF 100 ng/ml (Shenandoah #100-04), FLT3L 50 ng/ml (Shenandoah #100-21), II-3 20 ng/ml (Shenandoah #100-80), G-CSF 20 ng/ml (Shenandoah #100-72), β-mercaptoethanol (10^−4M), gentamicin (50 μg/ml) and ciprofloxacin (10 μg/ml). […] When compounds were added to the culture medium, final DMSO concentrations were 0.1% in all in vitro experiments and 0.01% when cultured cells were transplanted into NSG-mice.
Flow cytometry was performed on an LSR™ II cytometer equipped with an HTS-device (BD Bioscience, Primary and Secondary screens and in vitro validation experiments) or on a BD Canto™ II cytometer (BD Bioscience, Xenotransplantation and CellTrace Violet™ experiments). Cells were stained for 30 minutes at 4° C. protected from light if not otherwise indicated (CellTrace Violet™ staining). The following flow cytometry-antibodies were used: CD45 Pacific Blue (BioLegend 304029), CD33 PE (BD Bioscience 555450), CD34 APC (BD Bioscience 555824), CD3 FITC (BD Bioscience 555332), CD19 PE-Cy7 (BD Bioscience 557835), CD15 PE (BD Bioscience 555401), and anti-mouse CD45.1 APC-efluor 730 (eBioscience 47-0453-82). […]

Turning to `COC(=O)c1ccc2c(c1)[nH]c1ncnc(NCCCN3CCCCC3)c12` [UM0125729, methyl 4-((3-(piperidin-1-yl)propyl)amino)-9H-pyrimido[4,5-b]indole-7-carboxylate], the “absolute numbers of CD34+CD15− cells, UM729 added compared to AhR suppressors alone” value with AML 05H163 cells is listed as “higher”. Moreover, in the series on primary human AML cells [1] (setting [6]), the “% increase CD34+CD15− (%) 2ndary screen” value is given as 205.07% and the “% increase CD34+CD15− (cell counts) 2ndary screen” value is 206.53%. Moreover, the “2ndary screen criteria fulfilled” value in the series on primary human AML cells [1] (≧50% increase CD34+CD15− (%) and cell counts and ≧50% gated cells in at least one dose) is recorded as 1. In addition, the “effect of adding UM729 to AhR suppressor-supplemented cultures” value in series [2] (7-day culture, CD34+CD15− percentage) is “enhanced the effect of SR1 in all specimens”. The “preventing AML cell differentiation in vitro, compound alone” value in series [2] (17 AML specimens, 7-day culture, UM729 1 μM) was “most samples responded”. In addition, the “CD34+CD38− and CD34+CD38+ compartments, SR1 and UM729 compared to DMSO” value in series [2] (7 days in culture) is “benefitted”. In addition, the “effect on AhR target genes (CYP1A1, CYP1B1, AHRR) expression” value in series [3] was “no effect”. In the series with primary human AML cells [4] (2 μM (commercial libraries) or 1 μg/ml (IRIC)), the “percent gated cells (viability)” value is 78.40%. In the series on primary human AML cells [4] (compared to DMSO), the “% increase CD34+ (cell counts)” value is 26.44% and the “% increase CD34+CD15− (cell counts)” value is given as 63.00%. For the same compound, the “% increase CD34+CD15− (%)” value with primary human AML cells [4] (compared to DMSO ((compound − DMSO)/DMSO*100)) is given as 47.24%. Further, in series [5], the “effect of adding UM729 to SR1- (or C05-) supplemented cultures on engraftment” value was “increased engraftment levels, but not LSC frequency”. In addition, the “distribution of cell generations / number of early cell divisions” value in the series on AML cells (04H112) was “did not affect”. In the series on AML cells, the “typical morphologic signs of differentiation on cytospins” value is recorded as “rarely seen”.
